For orientation: IC50 means the concentration needed to halve the response being measured.

Test [1] has as its target T1, cGAS (Homo sapiens, UniProt Q8N884). In words: Cellular assay to measure cGAS activity (IFNb AlphaLISA in THP1 cells stimulated by RDG-Adenovirus-GFP). The format is cell-based. On the set-up: host or cells: THP1 cells differentiated with PMA and stimulated with RDG-Adenovirus-GFP. The settings on record: PMA-differentiated THP1 cells, RDG-Adenovirus-GFP at 1000 MOI; inhibition of IFNb production as marker for cGAS activity. Put shortly: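 PMA-differentiated THP1 cells were infected with RDG-Adenovirus-GFP at 1000 MOI for 4 h, then exposed overnight to test compounds. IFNb in the supernatant was quantified by AlphaLISA as a cGAS activity marker, and IC50 was fitted with a 4-parameter logistic equation.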

For test [2], the target named is T1, cGAS. The test can be described thus: In vitro inhibition assay of cGAS activity (cGAMP production, RapidFire mass spectrometry). The format is biochemical. More on the design: Insert cDNA encoding full-length of human cGAS; His6; made in house; host or cells: E. coli BL21(DE3). The settings on record: 10 nM recombinant human cGAS, 60 nM 75-bp dsDNA, 50 μM ATP, 50 μM GTP, 3 hrs. Put shortly:
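His6-tagged full-length human cGAS (10 nM, E. coli-expressed) was incubated for 3 hrs at ambient temperature with 60 nM 75-bp dsDNA, 50 μM ATP and 50 μM GTP in Tris pH 7.5/MgCl2 buffer with compound dilutions. cGAMP was quantified by RapidFire mass spectrometry against an internal standard, and IC50 was obtained by 4-parameter logistic fit.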

T1 sequence (Q8N884 whole entry): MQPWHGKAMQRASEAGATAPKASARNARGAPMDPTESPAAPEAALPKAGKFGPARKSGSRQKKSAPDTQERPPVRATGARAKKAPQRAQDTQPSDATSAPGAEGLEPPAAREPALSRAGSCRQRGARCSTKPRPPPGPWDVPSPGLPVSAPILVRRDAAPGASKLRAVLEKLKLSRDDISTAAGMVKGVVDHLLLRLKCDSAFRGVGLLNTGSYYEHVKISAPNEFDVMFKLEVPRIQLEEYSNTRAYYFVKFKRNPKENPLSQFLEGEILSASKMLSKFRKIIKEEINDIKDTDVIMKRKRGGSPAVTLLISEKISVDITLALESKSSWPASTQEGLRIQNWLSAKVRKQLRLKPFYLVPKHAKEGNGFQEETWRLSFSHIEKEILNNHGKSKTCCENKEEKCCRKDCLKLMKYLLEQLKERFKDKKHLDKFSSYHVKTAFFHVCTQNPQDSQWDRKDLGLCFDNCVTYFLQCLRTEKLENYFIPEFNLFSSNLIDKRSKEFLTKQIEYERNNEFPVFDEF

With `Cn1c2c(c3c(CC#N)cc(Cl)c(Cl)c31)CC(=O)NCC2CCO` (stereo not shown) [Example 121, 2-(7,8-Dichloro-5-(2-hydroxyethyl)-6-methyl-2-oxo-1,2,3,4,5,6-hexahydroazepino[4,5-b]indol-10-yl)acetonitrile], the half-inhibitory concentration (IC50) against cGAS [1] amounted to 180 nM; on cGAS [2], 17.2 nM.
The corresponding values for `CC1C(=O)NCCc2[nH]c3c(Cl)c(Cl)cc(OC4COC4)c3c21` (stereo not shown) [Example 183, 7,8-Dichloro-1-methyl-10-(oxetan-3-yloxy)-3,4,5,6-tetrahydroazepino[4,5-b]indol-2(1H)-one] are 1850 nM and 40.9 nM.
The corresponding values for `C[C@H]1C(=O)NCC(C)(C)c2c1c1c(NC(=O)CO)cc(Cl)c(Cl)c1n2C` (single isomer, unassigned) [Example 134, (R)—N-(7,8-Dichloro-1,5,5,6-tetramethyl-2-oxo-1,2,3,4,5,6-hexahydroazepino[4,5-b]indol-10-yl)-2-hydroxyacetamide or (S)—N-(7,8-Dichloro-1,5,5,6-tetramethyl-2-oxo-1,2,3,4,5,6-hexahydroazepino[4,5-b]indol-10-yl)-2-hydroxyacetamide] are 787 nM and 17.5 nM.
The corresponding values for `CC1C(=O)NCC(C)(C)c2[nH]c3c(Cl)c(Cl)cc(NCCO)c3c21` (stereo not shown) [Example 131, 7,8-Dichloro-10-((2-hydroxyethyl)amino)-1,5,5-trimethyl-3,4,5,6-tetrahydroazepino[4,5-b]indol-2(1H)-one] are 2720 nM and 53.3 nM.
On to `CC1C(=O)NCCc2[nH]c3c(Cl)c(Cl)cc(OCC(F)(F)CO)c3c21` (stereo not shown) [Example 72, 7,8-Dichloro-10-(2,2-difluoro-3-hydroxypropoxy)-1-methyl-3,4,5,6-tetrahydroazepino[4,5-b]indol-2(1H)-one], for which the half-maximal inhibitory concentration (IC50) is 662 nM against cGAS [1] and 23.3 nM at cGAS [2].
For `Cn1ncc(-c2cc(Cl)c(F)c3[nH]c4c(c23)CC(=O)NCC4)n1` [Example 1, 8-Chloro-7-fluoro-10-(2-methyl-2H-1,2,3-triazol-4-yl)-3,4,5,6-tetrahydroazepino[4,5-b]indol-2(1H)-one] the same measures were 2640 nM and 33.4 nM.
On to `C[C@H](O)C(=O)Nc1cc(Cl)c(Cl)c2[nH]c3c(c12)[C@@H](C)C(=O)NCC3(C)C` (single isomer, unassigned) [Example 182, (S)—N—((R)-7,8-Dichloro-1,5,5-trimethyl-2-oxo-1,2,3,4,5,6-hexahydroazepino[4,5-b]indol-10-yl)-2-hydroxypropanamide or (S)—N—((S)-7,8-dichloro-1,5,5-trimethyl-2-oxo-1,2,3,4,5,6-hexahydroazepino[4,5-b]indol-10-yl)-2-hydroxypropanamide], for which the IC50 against cGAS [1] is 1180 nM; at cGAS [2], 45.6 nM.
The corresponding values for `C[C@@H]1C(=O)NCCc2c1c1c(NC(=O)CO)cc(Cl)c(Cl)c1n2CC(F)(F)F` (single isomer, unassigned) [Example 186, (S)—N-(7,8-Dichloro-1-methyl-2-oxo-6-(2,2,2-trifluoroethyl)-1,2,3,4,5,6-hexahydroazepino[4,5-b]indol-10-yl)-2-hydroxyacetamide or (R)—N-(7,8-Dichloro-1-methyl-2-oxo-6-(2,2,2-trifluoroethyl)-1,2,3,4,5,6-hexahydroazepino[4,5-b]indol-10-yl)-2-hydroxyacetamide] are 4340 nM and 48.9 nM.
For `Cn1ncc(-c2cc(Cl)c(Cl)c3[nH]c4c(c23)CC(=O)NC[C@H]4CC(C)(F)F)n1` (single isomer, unassigned) [Example 137] the same measures were above 10000 nM and 683 nM.
For `CCC1CNC(=O)Cc2c1[nH]c1c(Cl)c(Cl)cc(NCCO)c21` (stereo not shown) [Example 163, 7,8-Dichloro-5-ethyl-10-((2-hydroxyethyl)amino)-3,4,5,6-tetrahydroazepino[4,5-b]indol-2(1H)-one] the same measures were 1620 nM and 23.1 nM.
Turning to `N#CCc1cc(Cl)c(Cl)c2c1c1c3n2CCC3CNC(=O)C1` (stereo not shown) [Example 114, 2-(8,9-Dichloro-2-oxo-2,3,4,4a, 5,6-hexahydro-1H-azepino[3,4,5-gh]benzo[b]pyrrolizin-11-yl)acetonitrile], the IC50 came out at 1270 nM against cGAS [1] and 38.4 nM on cGAS [2].
The corresponding values for `Cn1ncc(-c2cc(Cl)c(Cl)c3[nH]c4c(c23)CC(=O)NC[C@H]4CC(C)(F)F)n1` (single isomer, unassigned) [Example 136] are 1570 nM and 16 nM.
As to `Cn1ncc(-c2cc(Cl)c(Cl)c3[nH]c4c(c23)CC(=O)NC[C@H]4CC(C)(C)O)n1` (single isomer, unassigned) [Example 104], the IC50 amounted to 1570 nM on cGAS [1] and 42.2 nM on cGAS [2].
Consider `Cn1c2c(c3c(OCC#N)cc(Cl)c(Cl)c31)CC(=O)NCC2CCO` (stereo not shown) [Example 124, 2-((7,8-Dichloro-5-(2-hydroxyethyl)-6-methyl-2-oxo-1,2,3,4,5,6-hexahydroazepino[4,5-b]indol-10-yl)oxy)acetonitrile], for which the half-maximal inhibitory concentration (IC50) stood at 468 nM on cGAS [1] and 32.3 nM at cGAS [2].
The corresponding values for `CC1C(=O)NCCc2c1c1c(OCCCO)cc(Cl)c(Cl)c1n2C` (stereo not shown) [Example 77, 7,8-Dichloro-10-(3-hydroxypropoxy)-1,6-dimethyl-3,4,5,6-tetrahydroazepino[4,5-b]indol-2(1H)-one] are 843 nM and 14.1 nM.
For `N#CCc1cc(Cl)c(Cl)c2[nH]c3c(c12)CC(=O)NCC3CCO` (stereo not shown) [Example 113, 2-(7,8-Dichloro-5-(2-hydroxyethyl)-2-oxo-1,2,3,4,5,6-hexahydroazepino[4,5-b]indol-10-yl)acetonitrile] the same measures were 1740 nM and 37.3 nM.
The corresponding values for `C[C@H]1C(=O)NCCc2[nH]c3c(Cl)c(Cl)cc(CC#N)c3c21` (single isomer, unassigned) [Example 89] are 1130 nM and 20 nM.
Turning to `COCC[C@H]1CNC(=O)[C@@H](C)c2c1[nH]c1c(Cl)c(Cl)cc(NCCO)c21` (single isomer, unassigned) [Example 174], the IC50 on cGAS [1] was above 10000 nM; on cGAS [2] it was 361 nM.
The corresponding values for `CN(C)C(=O)CC1CNC(=O)Cc2c1[nH]c1c(Cl)c(Cl)cc(-c3cnn(C)n3)c21` (stereo not shown) [Example 7, 2-(7,8-Dichloro-10-(2-methyl-2H-1,2,3-triazol-4-yl)-2-oxo-1,2,3,4,5,6-hexahydroazepino[4,5-b]indol-5-yl)-N,N-dimethylacetamide] are 661 nM and 28.1 nM.
The corresponding values for `C[C@@H]1C(=O)NCCc2[nH]c3c(Cl)c(Cl)cc(OCCCO)c3c21` (single isomer, unassigned) [Example 14B] are 4450 nM and 302 nM.
For `C[C@H]1C(=O)NCCc2[nH]c3c(Cl)c(Cl)cc(-c4cnn(C)n4)c3c21` (single isomer, unassigned) [Example 37] the same measures were 802 nM and 30.4 nM.
As to `COCCOc1cc(Cl)c(Cl)c2[nH]c3c(c12)[C@H](C)C(=O)NCC3` (single isomer, unassigned) [Example 81], the IC50 against cGAS [1] was determined as 7060 nM; at cGAS [2], 1200 nM.
For `CC1C(=O)NCCc2[nH]c3c(Cl)c(Cl)cc(-c4cnn(C)n4)c3c21` (stereo not shown) [Example 9, 7,8-Dichloro-1-methyl-10-(2-methyl-2H-1,2,3-triazol-4-yl)-3,4,5,6-tetrahydroazepino[4,5-b]indol-2(1H)-one], the half-inhibitory concentration (IC50) against cGAS [1] amounted to 2160 nM; on cGAS [2] it was 87 nM.

Values taken from patent US20240246979A1, “cGAS INHIBITORS” (Eli Lilly and Company, priority 2022, published 2024).
